# Experimental data published in a melting point compilation (Tetko et al.).
row,Structure (SMILES),melting point [°C]
1,COc1ccc(OCc2ccccn2)c(/C=C/C(=O)O)c1,177 to 179
2,CCN(CC)S(=O)(=O)c1cc(N)ccc1C,166 to 169
3,O=C1CC(c2ccccc2)CN1 (configuration not stated),70 to 72
4,O=C(O)CC1(CC(=O)c2ccc(Cl)s2)CCCCC1,102 to 104
5,NC(=S)c1cnc2ccccn12,214 to 216
6,CCc1nc(N)sc1C(=O)O,154 to 156
7,Cc1cc([N+](=O)[O-])ccc1S(=O)(=O)Cl,69 to 71
8,CC(C)(C)OC(=O)N1CCCNC(=O)C1,112 to 114
9,Cc1ccc(Oc2ccc(O)cc2)cc1,71 to 73
10,CC(C)(C)OC(=O)NC(CCC(=O)O)c1ccccc1 (configuration not stated),151 to 153
11,NS(=O)(=O)CCCC(F)(F)F,66 to 68
12,CCOC(=O)c1noc(C)n1,32 to 34
13,NC(CSCc1cccc2ccccc12)C(=O)O (configuration not stated),199 to 201
14,O=S(=O)(Cl)c1ccc2nc(Cl)ccc2c1,138 to 140
15,COC(=O)c1snc(-c2ccccc2)c1N,114 to 116
16,O=C(O)CNC(=O)Nc1ccccc1,196 to 198
17,CC(C)C(Br)C(=O)N1CCc2sccc2C1 (configuration not stated),84 to 86
18,CCCCn1c(N)cc(=O)[nH]c1=O,238 to 240
19,Cc1ccc(-n2cc(C(=O)O)c(C(C)(C)C)n2)cc1,218 to 220
20,O=C1NC(=O)C2(CCCc3sccc32)N1 (configuration not stated),267 to 269
21,Cc1cc2cc(C=O)oc2cc1C,69 to 71
22,Cc1cccc(F)c1C#N,45 to 47
23,N#Cc1cn(-c2ccc([N+](=O)[O-])cn2)nc1N,322 to 324
24,O=C(NCCc1ccccc1)n1ccnc1,103 to 105

row,Structure (SMILES),melting point [°C]
1,Cc1nn(C)c(Cl)c1CO,92 to 94
2,COC(=O)c1c[nH]c(=O)c(C#N)c1,264 to 266
3,CCCc1[nH]c2ccccc2c1CC,43 to 45
4,OCCN1CCSCC1,34 to 36
5,Cc1ccc(Cn2ncc3c(C(=O)O)cc(C)nc32)cc1,190 to 192
6,O=c1[nH]c2ccccc2c(=O)n1CCO,257 to 259
7,C#CC#CCCCCCC(=O)O,35 to 37
8,Cn1cnc(S(=O)(=O)NCC(=O)O)c1,211 to 213
9,O=C1CC2(CCCC2)Oc2ccccc21,35 to 37
10,Nc1ccc(Cl)c(CO)n1,147 to 149
11,Nc1cc(C2CCC2)nn1-c1ccccc1,87 to 89
12,CC1(C2CC2)NC(=O)N(CC(=O)O)C1=O (configuration not stated),170 to 172
13,CC(Cl)C(=O)N(c1nccs1)C1CCCCC1 (configuration not stated),82 to 84
14,O=S1CCCNc2ccccc21 (configuration not stated),122 to 124
15,CCOc1ccc(OC)cc1N,45 to 47
16,CN(C)C1(C(=O)O)CCCSC1 (configuration not stated),196 to 198
17,O=S(=O)(Cl)c1scc(Br)c1Br,111 to 113
18,CCOc1ccc(C(=O)c2ccccc2Cl)cc1,86 to 88
19,Cc1cc(Cl)c2cccc([N+](=O)[O-])c2n1,109 to 111
20,Sc1nnc(-c2c[nH]c3ccccc23)o1,218 to 225
21,CCS(=O)(=O)c1cc(F)ccc1N,43 to 45
22,COc1ccc2c(c1)c(C(=O)O)c(C)n2C1CCCCC1,137 to 139
23,Fc1ccc(-c2nnc(Cl)c3ccccc23)cc1F,164 to 166
24,O=C1CC(C(=O)O)CS1 (configuration not stated),108 to 110

row,Structure (SMILES),melting point [°C]
1,CNS(=O)(=O)c1ccc(Cl)c(C(F)(F)F)c1,100 to 102
2,Nc1ccc(CN2CCN(c3ccccn3)CC2)cc1,101 to 103
3,CC(Cl)C(=O)NC12CC3CC(CC(C3)C1)C2 (configuration not stated),103 to 105
4,CCOc1ccc(NS(=O)(=O)c2ccc(N)cc2)cc1,145 to 147
5,NC(=S)COc1ccccc1-c1ccccc1,177 to 179
6,COc1cc(C(=O)O)c([N+](=O)[O-])cc1OCC#N,149 to 151
7,Cc1[nH]c(=O)[nH]c(=O)c1CCC(=O)O,306 to 308
8,O=Cc1nc(-c2ccccc2)c[nH]1,170 to 172
9,Cc1nc(O)ccc1I,209 to 211
10,Nc1c(-c2ccco2)nc2ccccn12,165 to 167
11,COc1ccccc1-c1nnc(N)[nH]1,214 to 216
12,COc1ccc(-c2n[nH]c(=O)c3ccccc23)cc1,238 to 240
13,COc1ccc(C(=O)Nc2ccccc2C(=O)O)cc1,184 to 186
14,Cn1ncc(CN)c1N,91 to 93
15,CCOC(=O)c1sc(N(C)C)nc1C,39 to 41
16,Cc1cccc(NC(=O)CCl)c1,128 to 130
17,Cc1ccc(-n2cc(S(=O)(=O)Cl)cn2)cc1,92 to 94
18,COc1ccc(N2CCCNC(=O)C2)cc1,172 to 174
19,N#Cc1c[nH]c2ccc(Cl)cc2c1=O,381 to 383
20,Cc1nn(-c2ccc(F)cc2)c(Cl)c1C=O,124 to 126
21,CC(Cl)c1ncc(-c2ccccc2)o1 (configuration not stated),54 to 56
22,CN1CCCN(c2nc3ccccc3cc2CO)CC1,95 to 97
23,COc1cc2ncc(Cl)nc2cc1OC,149 to 151
24,CC(C)(C)c1cnc(N)s1,79 to 81

row,Structure (SMILES),melting point [°C]
1,NC(=O)c1c(NC(=O)CCC(=O)O)sc2c1CCC2,231 to 233
2,O=C(O)c1nn(-c2c(Cl)cc(Cl)cc2Cl)cc1O,194 to 196
3,Nc1cc(Cl)c(OCC(F)(F)F)c(Cl)c1,89 to 91
4,CC(C)(C)OC(=O)NCc1nnc(-c2cccnc2)[nH]1,196 to 198
5,Cc1cnc2c(C)cnn2c1N,239 to 241
6,CS(=O)(=O)c1ccc(CNC(=O)CCl)cc1,142 to 144
7,COc1cc(C)nc(NN)n1,116 to 118
8,O=C(O)CNC(c1ccccc1)C(F)(F)F (configuration not stated),191 to 193
9,COc1ccc(C2CCCCC(O)C2)cc1 (configuration not stated),49 to 51
10,O=C(CCl)c1cn(-c2cccc(C(F)(F)F)c2)nn1,162 to 164
11,O=Cc1csc(COc2ccccc2)n1,76 to 78
12,Cc1ccc(-c2nnc(O)c3ccccc23)cc1,250 to 255
13,O=C1CCN(S(=O)(=O)c2cccs2)CC1,127 to 129
14,N#CCC(=O)NN1CCCCC1=O,146 to 148
15,NC(=O)C1=CCCC1,166 to 168
16,CC(C)(C)OC(=O)NC1CC1(F)F (configuration not stated),73 to 75
17,c1ccc(NCc2cccs2)nc1,76 to 78
18,N#Cc1c(Cl)nc2ccccn12,181 to 183
19,NC(=O)N1CCC(=O)CC1,137 to 139
20,CC(C)C(=O)NC(C)C(=O)O (configuration not stated),154 to 156
21,CCOC(=O)c1cnc2c(cnn2C)c1Cl,83 to 85

# The next lines start with the values.
row,melting point [°C],Structure (SMILES)
1,239 to 241,CC(C)(C)CNC(=O)c1ccc(C(=O)O)cn1
2,209 to 211,CNS(=O)(=O)c1cccc(C(=O)O)c1
3,206 to 208,COc1ccc(NC(=O)C(=O)O)cc1
4,183 to 185,COc1ccc(Br)cc1CN1C(=O)CNC1=O
5,169 to 171,CC1CNc2cc(F)ccc2C(=O)N1 (configuration not stated)
6,130 to 132,O=C(O)CCCNS(=O)(=O)c1ccc2c(c1)CCCC2
7,142 to 144,CC(Oc1cc(Cl)cc(Cl)c1)C(=O)O (configuration not stated)
8,121 to 123,COc1ccc(C)cc1NC(=O)CNC(=O)CCl
9,78 to 80,NC(=O)c1cccc(S(=O)(=O)Cl)c1
10,149 to 151,Cc1c(C(=O)O)cnn1-c1ccccc1Cl
11,134 to 136,O=C(O)C1CCN(c2ncc(C(F)(F)F)cc2Cl)CC1
12,85 to 87,COC(=O)C1Cc2ccccc2CN1C(=O)CCl (configuration not stated)
13,141 to 143,O=C(O)C1Cc2ccccc2CN1C(=O)c1ccccc1 (configuration not stated)
14,98 to 100,NCc1nnc(-c2cccc(Br)c2)o1
15,213 to 215,O=C(O)COc1ccc2ccc(=O)oc2c1
16,146 to 148,Nc1cc(C(=O)O)ccc1Oc1ccccc1
17,65 to 67,CC(C)(C(=O)O)c1cccc(Cl)c1
18,124 to 126,O=[N+]([O-])c1ccc(NC2CCOc3ccccc32)cc1 (configuration not stated)
19,130 to 132,Cc1ccc(N)cc1N1CCOC1=O
20,241 to 243,O=C(O)c1ccnc(Oc2ccccc2)c1
21,166 to 168,CC(=O)Nc1ccc(N)nc1
22,109 to 111,COC(=O)COc1ccc2cc(Br)ccc2c1
23,144 to 146,O=C(O)c1cccc(OCc2cccc(Cl)c2)c1
24,129 to 131,CC(SCc1ncc(-c2ccc(Cl)cc2)o1)C(=O)O (configuration not stated)
25,90 to 92,CC(C)(C)OC(=O)N1CCCc2ccc(N)cc21

row,melting point [°C],Structure (SMILES)
1,66 to 68,COC(=O)COc1ccc(N)cc1Cl
2,99 to 101,O=C(CO)N1CCc2ccccc2C1
3,197 to 199,O=C(O)c1cccc(OCc2cn3ccccc3n2)c1
4,164 to 166,CC1CCCCN1c1cc(C(=O)O)ccn1 (configuration not stated)
5,159 to 161,COc1cc(C(=O)O)c([N+](=O)[O-])cc1OCC1CCCO1 (configuration not stated)
6,288 to 290,CCCCN1C(=O)CCC(C(=O)O)C1c1ccccc1OC (configuration not stated)
7,170 to 172,O=C(O)C#Cc1ccc(F)cc1F
8,202 to 204,Nc1cc(NC(=O)c2ccccc2I)ccc1F
9,140 to 143,COc1ccc(-c2nnc(SCC(=O)O)o2)cc1
10,130 to 132,Cc1ccc2oc(=O)[nH]c2c1
11,53 to 55,O=[N+]([O-])c1cc(S(=O)(=O)Cl)ccc1Br
12,150 to 155,CC(=O)N(c1nc(CCl)cs1)c1ccccc1F
13,202 to 204,COc1ccc2oc(C(=O)O)c(C)c2c1
14,148 to 150,O=C(O)CCSCC(=O)Nc1ccc(Br)cc1
15,214 to 216,O=C(O)c1ccc(Cl)c(S(=O)(=O)Nc2ccc(Cl)cc2)c1
16,114 to 116,O=C(O)C1COc2ccc(Br)cc21 (configuration not stated)
17,144 to 146,Cc1ccc(NC(=O)NC(=O)CCl)cc1C
18,137 to 139,CC(O)c1ccc2c(c1)NC(=O)CO2 (configuration not stated)
19,279 to 281,Cc1ccc2c(O)c(C(=O)O)cnc2n1
20,162 to 164,Cc1cc(N)ccc1C(=O)N(C)C
21,165 to 167,O=C(CCl)Nc1ccc([N+](=O)[O-])cc1Br
22,239 to 241,NNC(=O)c1sc2cc(F)ccc2c1Cl
23,176 to 178,Cc1ccc(-n2nnc(C(=O)O)c2C(C)C)cc1
24,128 to 130,CC(=O)NCCNC(=O)c1ccccc1N
